These results are taken from patent US20260007634A1, “PHARMACEUTICAL COMPOSITIONS FOR THE TREATMENT OF ALLERGIC DISEASES” (KINKI UNIVERSITY, priority 2022, published 2026).

For test [1], the system named is B cells collected from mice. Kind of test: BAFF-induced differentiation into mature B cells (IgM/IgD flow cytometry). The format is cell-based, mouse. The following applies: 100 ng/mL BAFF, 10 days, 100 μM mangiferin, 20 μM 1,3,5,6-tetrahydroxyxanthone, 10 μM others. The method, then: B cells collected from mice were cultured in RPMI 1640 medium for 1 day. Then, 100 μM mangiferin, 10 μM mangiferin 8a, 10 μM norathyriol, 20 μM 1,3,5,6-tetrahydroxyxanthone, 10 μM xanthohydrol, 10 μM α-mangostin, 10 μM of γ-mangostin were added to B cell, and after 1 day of culture, 100 ng/mL of BAFF was added, followed by 10 days of culture. After 10 days of culture, cells were stained with anti-IgM and anti-IgD antibodies, markers of B cells, and the expression of IgM and IgD was measured using BD LSRFortessa. Note that IgM negative and IgD negative indicates pre-B cells, IgM positive and IgD negative indicates immature B cells, and IgM positive and IgD positive indicates mature B cells.
(In general: Flow cytometry measures light scatter and fluorescence of single cells or particles in a stream.)

Test [2] deals with TNFα. Kind of test: LPS-stimulated TNFα secretion in B cells (ELISA). The format is cell-based, mouse. Particulars: 10 μM compound, 10 μg/mL LPS 2 days, control 15.13, LPS 296.31. Here is the method:
Mouse B cells were used to examine the inhibition of compounds on TNFα secretion in LPS stimulation.
Mouse B cells were cultured in RPMI 1640 medium for 1 day. Then, 10 μM mangiferin 8a and 10 μM norathyriol were added to B cells, and after 1 day of culture, 10 μg/mL of LPS was added to each, followed by 2 days of culture.
Thus, the samples were divided into “control” with no treatment, “10 μg/mL LPS+10 μM mangiferin 8a” to which 10 μg/mL LPS and 10 μM mangiferin 8a were added, and “10 μg/mL LPS+10 μM norathyriol” to which 10 μg/mL LPS and 10 μM norathyriol were added and only 10 μg/mL LPS was added (“10 μg/L LPS”).
After these samples were incubated for 2 days, the culture supernatant was collected and TNFα secretion was measured by enzyme-linked immunosorbent assay (ELISA). The mouse TNFα ELISA kit (R&D) was used for this measurement.

In the next test the test system is Th17 cells. Put plainly: Th17 cell activation in inflammation-induced mouse model (IL-17A flow cytometry). The format is in vivo. The following applies: DBA/1J mice, Freund's complete adjuvant + bovine type2 collagen; oral 10 mg/kg daily 20 days; thymus cells; vs vehicle group. The method, then: (§1) Equal volume mixtures of Freund's complete adjuvant and Bovine type2 collagen were administered to 6-week-old male DBA/1J mice (Japan SLC Inc.) at 0.1 mL (day 0 of the study). 21 days later, DBA/1J mice were again injected with 0.1 mL of the above mixture for secondary immunization. After the second immunization, mice were orally treated with 10 mg/kg of mangiferin 8a and 10 mg/kg of norathyriol daily for 20 days. 20 days later, thymus glands were harvested from mice and stained with anti-CD4 and anti-IL-17A antibodies, which are Th17 cell markers, and expression of IL-17A (CD4 positive) was measured using BD LSRFortessa.

Test [3] has as its system TNFα. Kind of test: BAFF-induced TNFα secretion in B cells (ELISA). The format is cell-based, mouse. Particulars: DBA/1J spleen B cells; 10 μM compound, 100 ng/mL BAFF, 7 days; control 11.34, BAFF only 230.64. The method, then: Spleens were harvested from 6-week-old male DBA/1J mice and B cells were isolated. After isolation, the cells were cultured in RPMI 1640 medium for 1 day. Then, 10 μM mangiferin 8a and 10 μM norathyriol were added to B cells, and 100 ng/mL of BAFF was added to each 3 h later, and the cells were cultured for 7 days. After 7 days of culture, the culture supernatant was collected and TNFα secretion was measured by enzyme-linked immunosorbent assay (ELISA). This assay was performed using a mouse TNFα ELISA kit (R&D).

The test system of the next test is NF-κB p52. Put plainly: BAFF-stimulated B cells, nuclear NF-κB p52 (Western blotting). The format is cell-based, mouse. The following applies: vs 100 ng/mL BAFF; 100 μM mangiferin, 20 μM 1,3,5,6-tetrahydroxyxanthone, 10 μM others. The method, then: Spleens were harvested from 6-week-old male Balb/c mice and B cells were isolated. After isolation, the cells were seeded in […] dish and cultured in RPMI 1640 medium for 1 day and used as control. In addition, B cells were seeded into 100 mm^2 dish, and after 1 day of culture, 100 ng/mL BAFF was added and cultured for 1 h. Furthermore, B cells were seeded in […] dish, and after 1 day of culture, 100 μM mangiferin, 10 μM mangiferin 8a, 10 μM norathyriol, 20 μM 1,3,5,6-tetrahydroxyxanthone, 10 μM xanthohydrol, 10 μM of α-mangostin, and 10 μM of γ-mangostin were added to B cells, and after 23 h, 100 ng/mL BAFF was added to each, and the cells were incubated for 1 h. All were incubated at 37° C. and 5% CO2.
Proteins were extracted with cell lysate and used as samples. Each sample was transferred to a PVDF membrane after SDSPAGE and assayed with anti-phospho-NIK, anti-NIK, anti-NF-κB p52, anti-NF-κB p65 and anti-Lamin antibodies.
The antibody species is indicated in the vertical direction. Specifically, in the case of anti-phospho-NIK antibody (described as “Phospho-NIK”), anti-NIK antibody (described as “NIK”), anti-NF-κB p52 antibody (described as “NF-κB p52 nuclear”), anti-NF-κB p65 antibody (described as “NF-κB p65 nuclear”) and anti-Lamin antibody (described as “Lamin”).
On the technique in general: A western blot detects proteins with antibodies after separation by electrophoresis.

Test [4] deals with Monocytes collected from mice. Put plainly: LPS-induced M1 macrophage activation (CD80 flow cytometry). The format is cell-based, mouse. Particulars: 10 μM compound, 10 μg/mL LPS, 10 days; vs LPS-added group. Here is the method: Monocytes collected from mice were cultured in RPMI 1640 medium for 1 day. Then, 10 μM mangiferin 8a and 10 μM norathyriol were added to Monocytes, and after 1 day of culture, 10 μg/mL of LPS was added, followed by 10 days of culture. After 10 days of culture, cells were stained with anti-CD11b and anti-F4/80 antibodies, markers of macrophages, and anti-CD80 antibody, marker of M1 macrophages, and CD80 (CD11b positive and F4/80 positive) expression was measured using BD LSRFortessa.

In a further test the test system is Th1 cells. Kind of test: Th1 cell activation in inflammation-induced mouse model (IFNγ flow cytometry). The format is in vivo. The following applies: DBA/1J mice, Freund's complete adjuvant + bovine type2 collagen; oral 10 mg/kg daily 20 days; thymus cells; vs vehicle group. The method, then:
as §1, with “anti-IFNγ” for “anti-IL-17A”, “Th1” for “Th17”, “IFNγ” for “IL-17A”

Structures are written as SMILES.

Take `O=c1c2cc(O)c(O)cc2oc2cc(O)cc(O)c12` [norathyriol, 1,3,6,7-tetrahydroxyxanthone]: in test [1] (control 0, BAFF only 45.6), the “population IgM positive and IgD positive (mature B cells)” value was 0.062%. In test [1] (control 0.529, BAFF only 42.3), the “population IgM positive and IgD negative (immature B cells)” value is given as 1.46%. The “population IgM negative and IgD negative (pre-B cells)” value in test [1] (control 99.5, BAFF only 11.7) was found to be 98.5%. In addition, the TNFα secretion with TNFα [2] was 64.13 pg/mL; in the test with TNFα [3] it was 45.07 pg/mL. Also, in the test on Th17 cells, the “IL-17A expression (CD4 positive)” value is “markedly reduced”. Besides, the “nuclear NF-κB p52 band (immunoblotting)” value in the test with NF-κB p52 is “fainter”. Moreover, in test [4], the “CD80 expression (CD11b positive and F4/80 positive)” value is “markedly reduced”. Also, the “IFNγ expression (CD4 positive)” value in the test on Th1 cells is listed as “markedly reduced”.
